The values that follow come from US20200393447A1, “BIOSENSORS FOR MEASURING CELL SIGNALING IN STRESSED AND HEALTHY CELLS” (MONTANA MOLECULAR LLC, priority 2017, published 2020).

Holding throughout (assay type): cell-based
Data set [1] has as its system iPSC-derived peripheral neurons. As to the kind of experiment: Two-color stress sensor (SEQ ID NO: 6): percentage of ER-stressed cells after chemotherapeutic treatment. The note with it: 24 hours of incubation. The source says:
The two-color biosensor described in Example 5 above (RFP-GFP stress sensor; SEQ ID NO: 6) may be used to calculate the percent of cells undergoing ER stress, and may be used as measurement technique to detect side effects induced by chemotherapeutics. In order to determine the percentage of cells in population experiencing ER-stress following exposure to a ER-stress-inducing compound, iPSC-derived peripheral neurons were transduced with the two-color stress sensor described in Example 5 above. The cells were treated with the chemotherapeutic vincristine at concentrations of 0.0001 μM, 0.01 μM, and 0.1 μM. Measurement of the red fluorescence was used to identify transduced cells and measurement of green fluorescence identifies stressed cells. Stressed and unstressed cells were counted to quantify the percentage of stressed cells in the population.
Peri.4U peripheral neurons from Ncardia were plated onto 96-well plates according to the manufacturer's instructions. Cells were incubated for 2 days at 37° C. and 5% CO2 and the media was changed every 24 hours, using Ncardia neuro supplement media. […] Those cells that expressed both the constitutively expressed red nuclear marker and the green, stress induced, nuclear fluorescence were considered stressed, while those only expressing the red marker were considered unstressed. […]

Data set [2] has as its system HEK293T cells. As to the kind of experiment: RT-PCR of spliced/unspliced sensor mRNA (XBP1 intron splicing) after thapsigargin. The source says:
A second nucleic acid construct (SEQ ID NO: 6) was constructed and tested. This nucleic acid construct is a red fluorescent protein (RFP) with a nuclear localization sequence, placed upstream of the XBP1 intron sequence. A T2A peptide encoding sequence is placed after the RFP sequence. This is followed by a partial sequence from the endogenous XBP1 gene that encodes a region of the protein important for regulating its stability. This partial XBP1 sequence is fused to the mNeonGreen coding sequence. Upon stress activation the XBP1 intron sequence is removed, this removes a stop codon, shifts the reading frame, and allows for translation of the XBP1-mNeonGreen fusion construct. This construct was transfected into HEK293T cells, which were then treated with 1 μM thapsigargin or DMSO vehicle control to induce ER stress. Isolated mRNA from the treated cells was then analyzed for intron splicing using RT-PCR (see van Schadewijk et al., 2012).
(§1) HEK293T cells were transduced with 25 μL of the nucleic acid construct of SEQ ID NO: 6. The construct was transduced into 48,000 HEK293T cell in FluoroBrite media and the cells were incubated at 37° C. and 5% CO2 for 16 hours. A final concentration of 1 μM thapsigargin was added to the cells. For RT-PCR analysis a total of 2 μg of total RNA was isolated form 6 wells of cells grown on 96-well Greiner plates coated in poly-D-lysine. […] PCR products were then analyzed on a 2% agarose gel. […] All images were obtained using a Zeiss Axiovert fluorescence microscope with standard RFP and GFP excitation and emission filter sets. […] The media was supplemented with 25 mM HEPES and the cells were incubated in the BioTek Synergy MX plate reader at 37° C. for 24 hours. Green fluorescence was monitored using excitation and emission wavelengths of 485 nm and 528 nm respectively, while red fluorescence was monitored using 558 nm/603 nm excitation and emission wavelengths. […] The percentage of change in green, red, and green/red ratio fluorescence was then calculated.

Data set [3] has as its system HEK293T cells. Description: Two-color stress sensor fluorescence monitored over 24 hours after thapsigargin. The note with it: 1 μM vs DMSO, 24 hours monitoring. The protocol: as §1, with “poly-D-lysine. RNA was isolated using the Zymo Quick RNA microprep kit according to the manufacturer's instructions. mRNA was converted to cDNA by reverse transcription using M-MLV reverse transcriptase from Promega and an oligo dT primer according to the manufacturer's instructions.” for “poly-D-lysine.”

Data set [4] relates to HEK293T cells. Description: Multiplex Ca2+ biosensor (SEQ ID NO: 4) in cells stressed with thapsigargin, carbachol stimulation. The protocol:
In order to analyze the calcium response of cells exposed to an ER-stress inducing molecule, HEK293T cells transfected with the nucleic acid construct described in FIG. 1 were exposed to thapsigargin to induce ER stress. Thapsigargin is an inhibitor of the sarcoplasmic/endoplasmic reticulum Ca^2+ ATPase that inhibits the autophagic process and induces ER stress. The calcium signaling properties of the thapsigargin-treated cells was measured as described below. HEK293T cells were transfected with SEQ ID NO: 4 as follows. 27,000 cells per well in 100 μL of EMEM media were plated onto Greiner 96-well plates coated with poly-D lysine. The cells were incubated for 24 hours at 37° C. and 5% CO2. 100 ng of plasmid DNA expressing SEQ ID NO: 4 and 10 ng of plasmid expressing human muscarinic receptor 1 were then transfected using FUGENE as follows. 100 ng of DNA expressing SEQ ID NO: 4 and 10 ng of DNA expressing human muscarinic receptor 1 were combined with 0.4 μL of FUGENE and brought to a final volume of 50 μL using OPTIMEM serum free media and incubated for 20 mins at 25° C. then added to the cells. After 16 hours the cells were treated with a final concentration of 1 μM thapsigargin for 5 hours to induce ER stress. The cells were then washed 5× with 100 μL DPBS and 150 μL of DPBS was added to the wells. The cells were imaged using a Zeiss Axiovert fluorescence microscope using standard Green Fluorescent Protein (GFP) and Red Fluorescent Protein (RFP) excitation and emission filters. Images were obtained in both the red and green channels every 2 seconds for 100 seconds. A final concentration of 50 μM carbachol was added to the wells to stimulate Gq signaling after 20 seconds, releasing intracellular Ca^2+ stores for detection by the biosensor. The images were analyzed as follows. Cells were identified as either stressed or unstressed based on their green fluorescence intensity. The Ca^2+ signaling response upon Gq stimulation was monitored in the red fluorescence channel.

For data set [5], the system named is HEK293T cells. Description: Multiplex Ca2+ biosensor (SEQ ID NO: 4) in cells stressed by P23H rhodopsin mutant, carbachol stimulation. The note with it: 50 μM, P23H rhodopsin mutant co-expressed. The protocol: In order to analyze the calcium response of cells expressing a mutant protein, HEK293T cells were transfected with both the nucleic acid construct described in FIG. 1 and a mutant rhodopsin protein (P23H). The P23H mutation in rhodopsin causes retinitis pigmentosa (Rivolta et al. 2002), an inherited form of blindness that develops gradually over the first decade of life.
The experiment in FIG. 4 was conducted the same as in FIG. 3 with the following modifications. 100 ng of a plasmid expressing the P23H rhodopsin mutation was co-transfected with the plasmid expressing SEQ ID NO: 4 and 10 ng of human muscarinic receptor 1. After 24 hours the cells were treated with 50 μM carbachol as described in Example 1 above, and the Ca^2+ signaling was monitored in the red fluorescence channel for cells identified as stressed or unstressed based on their green fluorescence intensity.

On to `CC[C@]1(O)C[C@H]2CN(CCc3c([nH]c4ccccc34)[C@@](C(=O)OC)(c3cc4c(cc3OC)N(C=O)[C@H]3[C@@](O)(C(=O)OC)[C@H](OC(C)=O)[C@]5(CC)C=CCN6CC[C@]43[C@@H]65)C2)C1` [vincristine], for which the “percentage of stressed cells compared to control treatment” value in data set [1] (0.01 μM, p<0.00011) is given as “statistically significant percentages of stressed cells”; in data set [1] (0.1 μM, p<2.3e−05) it was “statistically significant percentages of stressed cells”.
`C/C=C(/C)C(=O)O[C@H]1C(C)=C2[C@H]([C@@H]1OC(=O)CCCCCCC)[C@@](C)(OC(C)=O)C[C@H](OC(=O)CCC)[C@@]1(O)[C@H]2OC(=O)[C@@]1(C)O` [thapsigargin]: in the data set with HEK293T cells [2] (1 μM), the “persistence of spliced sensor band (recovery from stress)” value was “disappears after 24 hours” and the “time of peak intensity of spliced sensor band post-treatment” value worked out at 2.5 h. Also, in the data set on HEK293T cells [2] (1 μM vs DMSO, 30 minutes, 2.5, 6 and 24 hours), the “appearance of spliced version of the sensor (lower band)” value is reported as “appears only in the thapsigargin treated cells”. In addition, the “green stress induced fluorescence over time” value in the data set with HEK293T cells [3] was “appears rapidly, then disappears by 24 hours”. Besides, the “mNeonGreen expression (ER stress marker)” value in the data set with HEK293T cells [4] (1 μM for 5 hours) was “the mNeonGreen protein due to the ER stress induced by the thapsigargin treatment”.
Take `C[N+](C)(C)CCOC(N)=O` [carbachol]: in the data set on HEK293T cells [5], the “release of intracellular Ca2+ stores, stressed vs unstressed cells” value was “blunted in the stressed cells compared to the unstressed cells”. The “Ca2+ response in ER-stressed cells compared to surrounding healthy cells” value in the data set on HEK293T cells [4] (50 μM, stressed (mNeonGreen) vs unstressed cell) is “blunted, smaller amplitude response”. In addition, in the data set on HEK293T cells [4] (50 μM, thapsigargin-treated cells), the “red fluorescence of Ca2+ biosensor after treatment” value is given as “visible increase in red fluorescence”.
